Measured values as given in patent publication US20030077628A1, “Method of screening compounds for biological activity” (priority 2002, published 2003).

Biological target: receptor B-subunit derived from the Escherichia coli O157 toxin (Bacteriophage H30, UniProt P69178)
Type: binding
Conditions: pH 7

receptor B-subunit derived from the Escherichia coli O157 toxin, sequence (P69178 21-89 limits assumed): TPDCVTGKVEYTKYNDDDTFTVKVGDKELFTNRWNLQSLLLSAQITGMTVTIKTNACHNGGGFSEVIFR

OC[C@H]1O[C@H](O[C@@H]2[C@H](O)[C@@H](O)[C@H](O[C@H]3[C@H](O)[C@@H](O)C(O)O[C@@H]3CO)O[C@@H]2CO)[C@H](O)[C@@H](O)[C@H]1O (some centres unmarked) [Galα1-4Galβ1-4Glc]
change of ligand resonances (one-bond 13C-1H splittings) in the presence of the receptor: shifted

OC[C@H]1O[C@@H](O[C@H]2[C@H](O)[C@@H](O)C(O)O[C@@H]2CO)[C@H](O)[C@@H](O)[C@H]1O (some centres unmarked) [Galβ1-4Glc, lactose]
change of ligand resonances (one-bond 13C-1H splittings) in the presence of the receptor: unchanged
